The values below come from patent publication US20050026850A1, “Combination of dehydroepiandrosterone or dehydroepiandrosterone-sulfate with a tyrosine kinase inhibitor, delta opioid receptor antagonist, neurokinin receptor antagonist, or VCAM inhibitor for treatment of asthma or chronic obstructive pulmonary disease” (priority 2003, published 2005).

Several values for one entry are separate records, joined by “and”; a condition that tells them apart may be missing. Identical values can stand only once.

One series relates to Intracellular adenosine. Kind of series: In vivo effect on adenosine levels in various rat tissues.
A short description of series [1]: Solid-state stability with and without lactose at 50° C. (DHEA formation by HPLC). It is filed as physicochemical. Conditions: for DHEA % formed from Anhydrous DHEA-S / Percent DHEA formed from DHEA-S Dihydrate: Control, neat, sealed, 25° C. An excerpt: These conditions were used to stress the formulation in order to predict its long-term stability results. […] The primary degradant is DHEA. […] The materials on accelerated storage become more cohesive with time as evidenced by clumping during sample weighing for chemical analysis. […] This is a considerable disadvantage since lactose is the most commonly used inhalation excipient for dry powder formulations. Continuing with the virtually anhydrous form would mean limiting formulations to neat powder or undertaking more comprehensive safety studies to use a novel excipient.

The test system of series [2] is HT-29 SF cells. Kind of series: DHEA effect on cell cycle (flow cytometry). It is filed as cell-based, human. The procedure: Cells were plated at 10^5/60-mm dish in duplicate. […] Cultures were trypsinized following 0, 24, 48, or 74 hours and fixed and stained using a modification of a procedure of Bauer et al., Cancer Res. 46, 3173-3178 (1986). Briefly, cells were collected by centrifugation and resuspended in cold phosphate-buffered saline. Cells were fixed in 70% ethanol, washed, and resuspended in phosphate-buffered saline.
After 24, 48, and 72 hours, cells were harvested, fixed in ethanol, and stained with propidium iodide, and the DNA content/cell was determined by flow cytometric analysis. The percentage of cells in G1, S, and G2M phases was calculated using the Cellfit cell cycle analysis program. S phase is marked by a quadrangle for clarity. Representative histograms from duplicate determinations are shown. The experiment was repeated three times.
In general terms: A flow cytometer gives signals particle by particle.

In series [3] the test system is HT-29 SF cells. Kind of series: DHEA effect on cell growth. Format: cell-based, human.
A short description of the next series: Solubility of DHEA-S. It is filed as physicochemical. The following applies: 15° C., 20 mM Na+, from Ksp by quadratic formula. From the text: Inhalation of pure water can produce a cough stimulus. […] The temperature effect is weaker at high NaCl concentrations.
The nature of series [4]: Short-term solution stability of DHEA-S formulation. Format: physicochemical. The following applies: 7.5 mg/mL of DHEA-S in 0.12% NaCl, RT. The procedure: Aliquots of this solution are filled into clear glass vials and stored at RT (24-26° C.) and at 40° C. The samples are checked daily for DHEA-S content, DHEA content, and appearance. For each time point, duplicate samples are withdrawn and diluted from each vial. […] The study is stopped on day three. […] The solution should easily be stable for the day of reconstitution in a clinical trial. The following section describes the aerosol properties of this formulation.

Series [5] is described as follows: HPLC analysis of drug degradation during jet milling micronization. Format: physicochemical. The following applies: single-pass and double-pass jet milled, HPLC peak area versus unmilled standard. The procedure:
Two vials (A; single-pass; 150 mg) and (B double-pass; 600 mg) of the micronized drug were available for determining drug degradation during jet milling micronization. […] The chromatographic peak area for the HPLC assay of the unmilled drug standard solution (10 mg/ml) gave a value of 23,427. […] The chromatographic peak areas for vials A and B were 11,979 and 11,677, respectively.

The next series is described as follows: Nebulizer studies. Conditions: 0.12% NaCl (20 mM Cl−), Pari LC Plus nebulizer, 5 mL. From the text: The collection apparatus, nebulizer, and imp actor are rinsed with mobile phase and assayed by HPLC.
Series [6] relates to rat peritoneal mast cells. Kind of series: Compound 48/80 histamine release from rat peritoneal mast cells. Format: cell-based. Conditions: for % Inhibition of Histamine Release: DHEA-S 0; for effect on compound 48/80 induced mast cell degranulation: antagonist alone, 1-100 nM.
The test system of the next series is NK1. The following applies: printed under the compound name in the table, no method or source; cited from earlier work.

Regarding `Nc1nc(=O)c2c([nH]1)NCC(CNc1ccc(C(=O)N[C@@H](CCC(=O)O)C(=O)O)cc1)N2C=O` (mixture of isomers) [Folinic Acid, Folinic acid], the “Intracellular adenosine, Brain” value in the series on Intracellular adenosine (Fischer 344 rats, once daily 14 days, DHEA 300 mg/kg, methyltestosterone 120 mg/kg, folinic acid 50 mg/kg i.p., mean ± SEM, control 0.5 ± 0.04) came out at 0.72 ± 0.09 nmols/mg protein. Moreover, the “effect of folinic acid administered alone on adenosine levels” value with Intracellular adenosine (rats, folinic acid 50 mg/kg i.p. 14 days) was “increase in adenosine levels for all organs studied”. Also, in the series on Intracellular adenosine (rats, folinic acid 50 mg/kg i.p. with DHEA or methyltestosterone), the “effect of coadministration of folinic acid on steroid-mediated adenosine depletion” value is given as “completely abrogated steroid-mediated adenosine depletion”.

Consider `C[C@]12CC[C@H](OS(=O)(=O)[O-])CC1=CC[C@@H]1[C@@H]2CC[C@]2(C)C(=O)CC[C@@H]12.[Na+]` [Anhydrous DHEA-S], for which the figures for the “DHEA % formed from Anhydrous DHEA-S at 50° C.” value in series [1] (1 week), in [1] (2 weeks) and in [1] (4 weeks) were 9.817%, 14.954% and 20.171%, respectively. In addition, the “DHEA % formed from Anhydrous DHEA-S” value was 2.694% in series [1] (1 week); 2.370% in series [1] (2 weeks); 2.666% in [1] (4 weeks); 2.774% in series [1] (Time (Weeks), initial value).

For `C[C@]12CC[C@H](O)CC1=CC[C@@H]1[C@@H]2CC[C@]2(C)C(=O)CC[C@@H]12` [DHEA, 3β-hydroxyandrost-5-en-17-one], the “cell cycle effect (summary)” value in the series with HT-29 SF cells [2] (25-200 μM, 24-72 hours) is “G1 block in HT-29 SF cells in a time-and dose-dependent manner”. In the series with HT-29 SF cells [2] (25 or 50 μM, 72 hours), the cell cycle distribution entry is “the percentage of cells in G1 phase was increased after 72 hours”. For the same molecule, the “effect on tissue adenosine” value in the series with Intracellular adenosine (rat, in vivo) is given as “multi-organ depletion of adenosine”. Further, the “exposure time after which cell number was reduced compared to controls” value in the series with HT-29 SF cells [3] (12.5 μM) was 72 h; in the series with HT-29 SF cells [3] (25 μM) it was 48 h; in the series with HT-29 SF cells [3] (50 μM), 48 h; with HT-29 SF cells [3] (200 μM), 24 h.

For `CC12CCC3C(CC=C4CC(OS(=O)(=O)[O-])CCC43C)C1CCC2=O.[Na+]` (centres unmarked) [DHEA-S Dihydrate], the “Percent DHEA formed from DHEA-S Dihydrate at 50° C.” value in [1] (1 week) stood at 0.216%; in series [1] (3 weeks) it was 0.317%; in series [1] (4 weeks), 0.374%. The “Percent DHEA formed from DHEA-S Dihydrate” value amounted to 0.218% in [1] (4 weeks) and 0.213% in series [1] (Time (Weeks), initial value).

In the case of `C[C@]12CC[C@H](OS(=O)(=O)[O-])CC1=CC[C@@H]1[C@@H]2CC[C@]2(C)C(=O)CC[C@@H]12.[Na+]` [DHEA-S, sodium dehydroepiandrostenone sulfate], the “calculated DHEA-S solution concentration” value in the series “Solubility of DHEA-S” is 27.5 mM and 10.7 mg/mL. The “stability of nebulizer formulation” value in series [4] is “stable for at least one day at RT”. Also, the “drug degradation during jet milling micronization” value in [5] is listed as “no detectable degradation of the drug during the jet milling micronization process”. Besides, the “highest solution concentration that will not precipitate during nebulization” value in the series “Nebulizer studies” is given as “approximately 7.5 mg/mL”.

In the case of `C[C@]12CCC(=O)C=C1CC[C@@H]1[C@@H]2CC[C@@]2(C)[C@H]1CC[C@]2(C)O` [Methyltestosterone, methyltestosterone], in the series with Intracellular adenosine (rat, in vivo), the “Intracellular adenosine, Brain” value is 0.42 ± 0.06 and 0.32 ± 0.03; the “Intracellular adenosine, Heart” value is 8.3 ± 1.0 and 6.0 ± 0.4; the “effect on tissue adenosine” value was “multi-organ depletion of adenosine”.

Turning to `C=CCN1CC[C@]23c4c5ccc(O)c4O[C@H]2C(=O)CC[C@@]3(O)[C@H]1C5` [Naloxone, naloxone], the results for the “% Inhibition of Histamine Release” value in series [6] (antagonist 1 nM), in series [6] (antagonist 10 nM) and in series [6] (antagonist 100 nM) were −1%, −1% and −2%, respectively. In addition, in [6], the “effect on compound 48/80 induced mast cell degranulation” value was “minimal effect (if any)”.

A word on the IC50: it is the point on the concentration scale where inhibition reaches its midpoint. As to `CC(C)Oc1cccc(CC(=O)N2CCC[C@](CC[N+]34CCC(c5ccccc5)(CC3)CC4)(c3ccc(Cl)c(Cl)c3)C2)c1` [SR 140333], the “% Inhibition of Histamine Release” value in series [6] (antagonist 1 nM) was 1%; in series [6] (antagonist 30 nM), −8%; in [6] (antagonist 100 nM) it was −5%. The “effect on compound 48/80 induced mast cell degranulation” value in series [6] is reported as “minimal effect (if any)”. Moreover, the IC50 with NK1 was 0.05 µM.
